Data set [1] is described as follows: Lipophilicity determination by RP-HPLC (capacity factor, log k). The data set is classed as physicochemical. To be noted: RP-HPLC capacity factor logarithm; C18 column, MeOH 60% / H2O 40%, 40 °C. The protocol:
Lipophilicity of the studied compounds was determined by RP-HPLC as capacity factor logarithm (log k) and calculated as log P using ACD/Percepta software. […] It is important to note that lipophilicity also has a great impact on target and off-target interactions, as mentioned below.
A HPLC system Agilent 1200 equipped with DAD detector (Agilent, Santa Clara, CA, USA) was used. A chromatographic column Symmetry® C18 5 μm, 4.6 × 250 mm, Part No. WAT054275, (Waters Corp., Milford, MA, USA) was used. The HPLC separation process was monitored and evaluated by EZChrom Elite software ver. 3.3.2 (Agilent). Isocratic elution by a mixture of MeOH p.a. (60%) and H2O-HPLC Mili-Q grade (40%) as a mobile phase was used. The total flow of the column was 1.0 mL/min, injection 20 μL, column temperature 40 °C and sample temperature 10 °C. The detection wavelength 210 nm was chosen. The KI methanolic solution was used for the dead time (tD) determination. Retention times (tR) were measured in minutes. The capacity factors k were calculated according to formula k = (tR − tD)/tD, where tR is the retention time of the solute, whereas tD denotes the dead time obtained using an unretained analyte. Log k, calculated from the capacity factor k, is used as the lipophilicity index converted to log P scale.

In data set [2] the test system is Staphylococcus aureus ATCC 29213. Nature of the data set: In vitro antibacterial susceptibility testing, broth dilution micro-method. The data set is classed as cell-based. Particulars: ATCC29213, MH broth, 24 h, 37 °C. The protocol:
(§1) The synthesized compounds were evaluated for in vitro antibacterial activity against representatives of multidrug-resistant bacteria, clinical isolates of methicillin-resistant Staphylococcus aureus (MRSA) 63718, SA 630 and SA 3202 that were obtained from the National Institute of Public Health, Prague, Czech Republic. Staphylococcus aureus ATCC 29213 was used as a reference and quality control strain. Ampicillin (Sigma-Aldrich) was used as the standard. Prior to testing, each strain was passaged onto nutrient agar (Oxoid, Hampshire, UK) with 5% of bovine blood, and bacterial inocula were prepared by suspending a small portion of bacterial colony in sterile phosphate buffered saline (pH 7.2–7.3). The cell density was adjusted to 0.5 McFarland units using a densitometer (Densi-La-Meter, LIAP, Riga, Latvia). The final inoculum was made by 1:20 dilution of the suspension with the Mueller-Hinton broth (MH broth). […] The broth dilution micro-method modified according to NCCLS guidelines in MH broth was used to determine the minimum inhibitory concentration (MIC). Drug-free controls, sterility controls and controls consisted of MH broth and DMSO alone were included. The determination of results was performed visually after 24 h of static incubation in the darkness at 37 °C in an aerobic atmosphere. The MICs were defined as the lowest concentration of the compound at which no visible bacterial growth was observed.

Data set [3] concerns methicillin-resistant Staphylococcus aureus (MRSA) 63718. Described as above. To be noted: Staphylococcus aureus; clinical isolate MRSA 63718; MH broth, 24 h, 37 °C. The data set is classed as cell-based. The protocol:
as §1

Data set [4] relates to methicillin-resistant S. aureus SA 3202. The description is as above. Particulars: Staphylococcus aureus; clinical isolate MRSA SA 3202; MH broth, 24 h, 37 °C. The data set is classed as cell-based, Staphylococcus aureus. The protocol: as §1
Data set [5] concerns methicillin-resistant S. aureus SA 630. The description is as above. The data set is classed as cell-based, Staphylococcus aureus. Particulars: Staphylococcus aureus; clinical isolate MRSA SA 630; MH broth, 24 h, 37 °C. The protocol: as §1
The subject of data set [6] is Mycobacterium marinum CAMP 5644. Nature of the data set: In vitro antimycobacterial evaluation, broth dilution micro-method. The data set is classed as cell-based. Particulars: CAMP5644, 504 h, Middlebrook 7H9, 21 days, 28 °C. On the technique in general: In broth dilution the organism is exposed to a series of concentrations in liquid medium.
The subject of the next data set is M. kansasii DSM 44162. The description is as above. The data set is classed as cell-based. Particulars: Mycobacterium kansasii, DSM44162, 168 h, Middlebrook 7H9, 7 days, 37 °C.

Converted amounts (≈) assume the structure as drawn. A value given as a limit tells only on which side of the number the result lay.

The term MIC denotes the smallest concentration in the dilution series that meets the test's criterion for growth inhibition. A lower MIC goes with inhibition by little substance. With `COc1ccc(NC(=O)c2cc3ccccc3cc2O)cc1` [2c, 3-Hydroxy-N-(4-methoxyphenyl)naphthalene-2-carboxamide], in data set [1], the log k turned out to be 0.5951. Further, the minimum inhibitory concentration (MIC) in data set [2] was above 873 µM; in data set [3], above 873 µM; in data set [4], above 873 µM; in data set [5], above 873 µM; in data set [6], above 873 µM; with M. kansasii DSM 44162 it was 873 µM (≈ 256 µg/mL).

In data set [1], `Cc1ccccc1NC(=O)c1cc2ccccc2cc1O` [3a, 3-Hydroxy-N-(2-methylphenyl)naphthalene-2-carboxamide] came in with a log k of 0.6936. Also, the MIC was above 923 µM in data set [2]; above 923 µM in data set [3]; 462 µM (≈ 128 µg/mL) in data set [4]; above 923 µM in data set [5]; 462 µM (≈ 128 µg/mL) in data set [6]; 115 µM (≈ 31.9 µg/mL) in the data set with M. kansasii DSM 44162.

The molecule `Cc1cccc(NC(=O)c2cc3ccccc3cc2O)c1` [3b, 3-Hydroxy-N-(3-methylphenyl)naphthalene-2-carboxamide] displayed a log k in data set [1] of 0.8831. The minimum inhibitory concentration (MIC) in data set [2] is above 923 µM; in data set [3], above 923 µM; in data set [4] it was 462 µM (≈ 128 µg/mL); in data set [5], above 923 µM; in data set [6], 923 µM (≈ 256 µg/mL); in the data set on M. kansasii DSM 44162 it was 57.7 µM (≈ 16 µg/mL).

`Cc1ccc(NC(=O)c2cc3ccccc3cc2O)cc1` [3c, 3-Hydroxy-N-(4-methylphenyl)naphthalene-2-carboxamide] showed a log k in data set [1] of 0.8753. Further, the minimal inhibitory concentration (MIC) in data set [2] was above 923 µM; in data set [3], above 923 µM; in data set [4], 231 µM (≈ 64.1 µg/mL); in data set [5] it was 462 µM (≈ 128 µg/mL); in data set [6] it was above 923 µM; with M. kansasii DSM 44162 it was 923 µM (≈ 256 µg/mL).

Turning to `O=C(Nc1cccc(F)c1)c1cc2ccccc2cc1O` [4b, N-(3-Fluorophenyl)-3-hydroxynaphthalene-2-carboxamide], in data set [1], the log k is 0.8296. In addition, the MIC in data set [2] is above 910 µM; in data set [3], above 910 µM; in data set [4] it was 228 µM (≈ 64.1 µg/mL); in data set [5] it was 455 µM (≈ 128 µg/mL); in data set [6], 114 µM (≈ 32.1 µg/mL); against M. kansasii DSM 44162, 114 µM (≈ 32.1 µg/mL).

`O=C(Nc1ccc(F)cc1)c1cc2ccccc2cc1O` [4c, N-(4-Fluorophenyl)-3-hydroxynaphthalene-2-carboxamide] returned a log k in data set [1] of 0.7317. In addition, the minimal inhibitory concentration (MIC) in data set [2] was above 910 µM; in data set [3], above 910 µM; in data set [4], 228 µM (≈ 64.1 µg/mL); in data set [5], 455 µM (≈ 128 µg/mL); in data set [6], 910 µM (≈ 256 µg/mL); in the data set with M. kansasii DSM 44162, 114 µM (≈ 32.1 µg/mL).

In turn, `O=C(Nc1ccccc1Cl)c1cc2ccccc2cc1O` [5a, N-(2-Chlorophenyl)-3-hydroxynaphthalene-2-carboxamide] gave a log k in data set [1] of 0.9509. Further, the MIC in data set [2] was above 860 µM; in data set [3] it was above 860 µM; in data set [4] it was 215 µM (≈ 64 µg/mL); in data set [5], above 860 µM; in data set [6], 860 µM (≈ 256 µg/mL); in the data set with M. kansasii DSM 44162, 860 µM (≈ 256 µg/mL).

`O=C(Nc1cccc(Cl)c1)c1cc2ccccc2cc1O` [5b, N-(3-Chlorophenyl)-3-hydroxynaphthalene-2-carboxamide] registered a log k in data set [1] of 1.0796. Besides, the MIC was above 860 µM in data set [2]; above 860 µM in data set [3]; 215 µM (≈ 64 µg/mL) in data set [4]; 430 µM (≈ 128 µg/mL) in data set [5]; above 860 µM in data set [6]; 860 µM (≈ 256 µg/mL) with M. kansasii DSM 44162.

In data set [1], `O=C(Nc1ccc(Cl)cc1)c1cc2ccccc2cc1O` [5c, N-(4-Chlorophenyl)-3-hydroxynaphthalene-2-carboxamide] registered a log k of 1.0687. Further, the MIC in data set [2] is above 860 µM; in data set [3] it was above 860 µM; in data set [4], above 860 µM; in data set [5], above 860 µM; in data set [6], above 860 µM; against M. kansasii DSM 44162, 430 µM (≈ 128 µg/mL).

`O=C(Nc1cccc(Br)c1)c1cc2ccccc2cc1O` [6b, N-(3-Bromophenyl)-3-hydroxynaphthalene-2-carboxamide] yielded a log k in data set [1] of 1.1536. In addition, the minimal inhibitory concentration (MIC) was above 748 µM in data set [2]; above 748 µM in data set [3]; 187 µM (≈ 64 µg/mL) in data set [4]; above 748 µM in data set [5]; above 748 µM in data set [6]; 748 µM (≈ 256 µg/mL) against M. kansasii DSM 44162.

`O=C(Nc1ccc(Br)cc1)c1cc2ccccc2cc1O` [6c, N-(4-Bromophenyl)-3-hydroxynaphthalene-2-carboxamide] had a log k in data set [1] of 1.1459. The minimum inhibitory concentration (MIC) was above 748 µM in data set [2]; above 748 µM in data set [3]; 187 µM (≈ 64 µg/mL) in data set [4]; above 748 µM in data set [5]; above 748 µM in data set [6]; 374 µM (≈ 128 µg/mL) in the data set with M. kansasii DSM 44162.

The molecule `O=C(Nc1cccc(C(F)(F)F)c1)c1cc2ccccc2cc1O` [7b, 3-Hydroxy-N-(3-trifluoromethylphenyl)naphthalene-2-carboxamide] gave a log k in data set [1] of 1.2053. Further, the MIC in data set [2] was above 748 µM; in data set [3], above 748 µM; in data set [4], 187 µM (≈ 62 µg/mL); in data set [5], 374 µM (≈ 124 µg/mL); in data set [6], above 748 µM; in the data set on M. kansasii DSM 44162 it was 748 µM (≈ 248 µg/mL).

Regarding `O=C(Nc1ccc(C(F)(F)F)cc1)c1cc2ccccc2cc1O` [7c, 3-Hydroxy-N-(4-trifluoromethylphenyl)naphthalene-2-carboxamide], the log k in data set [1] came to 1.2835. The MIC in data set [2] was above 748 µM; in data set [3] it was above 748 µM; in data set [4] it was 187 µM (≈ 62 µg/mL); in data set [5] it was 374 µM (≈ 124 µg/mL); in data set [6], above 748 µM; against M. kansasii DSM 44162, 187 µM (≈ 62 µg/mL).

For the molecule `CC1(C)S[C@@H]2[C@H](NC(=O)[C@H](N)c3ccccc3)C(=O)N2[C@H]1C(=O)O` [APC, ampicillin, reference compound], the MIC in data set [2] is 5.7 µM (≈ 1.99 µg/mL); in data set [3], above 45.8 µM; in data set [4], above 45.8 µM; in data set [5], above 45.8 µM.

Regarding `NNC(=O)c1ccncc1` [INH, isoniazid, reference compound], in data set [6], the minimal inhibitory concentration (MIC) amounted to 467 µM (≈ 64 µg/mL).

Turning to `O=C(Nc1ccccc1)c1cc2ccccc2cc1O` [compound 1, 3-Hydroxy-N-phenylnaphthalene-2-carboxamide], the log k in data set [1] was 0.6310. Further, the minimum inhibitory concentration (MIC) in data set [2] was above 972 µM; in data set [3], above 972 µM; in data set [4], above 972 µM; in data set [5] it was above 972 µM; in data set [6] it was 122 µM (≈ 32.1 µg/mL); against M. kansasii DSM 44162, 972 µM (≈ 256 µg/mL).

Molecule `O=C(Nc1ccccc1F)c1cc2ccccc2cc1O` [compound 4a, N-(2-Fluorophenyl)-3-hydroxynaphthalene-2-carboxamide] had a log k in data set [1] of 0.7303. The MIC in data set [2] is above 910 µM; in data set [3], above 910 µM; in data set [4], 228 µM (≈ 64.1 µg/mL); in data set [5], 455 µM (≈ 128 µg/mL); in data set [6], 28.4 µM (≈ 7.99 µg/mL); in the data set with M. kansasii DSM 44162 it was 56.9 µM (≈ 16 µg/mL).

The values above are taken from article PMC6270455, “Antibacterial and Herbicidal Activity of Ring-Substituted 3-Hydroxynaphthalene-2-carboxanilides” (Molecules, 2013).
